By ED50 is commonly meant the midpoint of the dose-response relation. A low value points to an effect at a small dose.

The subject of the first assay is formaldehyde pain. The assay can be described thus: formaldehyde pain test in guinea pigs. The conditions noted are these: Cavia porcellus, po, guinea pig. The assay is classed as in vivo. Here is the method: Moreover, certain products according to the invention were studied in the formaldehyde pain test in guinea pigs. The ED50 of the product is determined in this way.
Compound `COc1ccccc1[C@H](C)C(=O)N1C[C@@H]2C[C@@H](CC#N)C[C@@](O)(c3ccccc3OC)[C@@H]2C1` [Example 1, (3aS,4S,6S,7aR)-6-Cyanomethyl-4-(2-methoxyphenyl)-2-[(S)-2-(2-methoxylphenyl)propionyl]perhydroisoindol-4-ol] returned an ED50 of 1 mg/kg.

Turning to `COc1ccccc1CC(=O)N1C[C@@H]2C[C@@H](CC#N)C[C@@](O)(c3ccccc3OC)[C@@H]2C1` [Example 5, (3aS, 4S, 6S, 7aR)-6-Cyanomethyl-4-(2-methoxyphenyl)-2-[(2-methoxyphenyl)acetyl]perhydroisoindol-4-ol], the ED50 lay within 3 to 30 mg/kg.

Regarding `COc1ccccc1[C@]1(O)C[C@H](CC#N)C[C@H]2CN(C(=O)[C@@H](N)c3ccccc3)C[C@H]21` [Example 9, (3aS,4S,6S,7aR)-2-[(S)-2-Amino-2-phenylacetyl]-6-cyanomethyl-4-(2-methoxyphenyl)perhydroisoindol-4-ol], the ED50 fell in the range of 3 to 30 mg/kg.

For the next assay, the system named is increase in capillary permeability brought about by septide (a substance P agonist). The assay can be described thus: inhibition of the increase in capillary permeability brought about by septide. Format: in vivo. The note with it: Cavia porcellus, po; guinea pig, capillary permeability increase induced by septide. An excerpt: The study of certain isoindole derivatives of general formula (I) in the technique of A. Saria et al., Arch.
Regarding `COc1ccccc1[C@@]1(O)C[C@@H](CC#N)C[C@@H]2CN(C(=O)Cc3ccccc3N3CCCC3)C[C@@H]21` (racemic) [Example 2, (3aRS,4RS,6RS,7aSR)-6-Cyanomethyl-4-(2-methoxyphenyl)-2-{[2-(1-pyrrolidinyl)phenyl]acetyl} perhydroisoindol-4-ol], the ED50 worked out at 1 mg/kg.

In turn, `N#CC[C@@H]1C[C@@H]2CN(C(=O)Cc3ccccc3O)C[C@@H]2[C@@](O)(c2ccccc2F)C1` (racemic) [Example 14, (3aRS,4RS,6SR,7aSR)-6-Cyanomethyl-4-(2-fluorophenyl)-2-(2-hydroxyphenylacetyl)perhydroisoindol-4-ol] had a median effective dose (ED50) of 0.2 to 0.4 mg/kg.

With `COc1ccccc1CC(=O)N1C[C@@H]2C[C@@H](CNC#N)C[C@@](O)(c3ccccc3OC)[C@@H]2C1` (relative stereo) [Example 18, (3aRS,4RS,6SR,7aSR)-6-Cyanoaminomethyl-4-(2-methoxyphenyl)-2-[(2-methoxyphenyl)acetyl]perhydroisoindolol], the ED50 stood at 1 mg/kg.

Compound `COc1ccccc1[C@H](C)C(=O)N1C[C@@H]2C[C@@H](CC#N)C[C@@](O)(c3ccccc3OC)[C@@H]2C1` [Example 1, (3aS,4S,6S,7aR)-6-Cyanomethyl-4-(2-methoxyphenyl)-2-[(S)-2-(2-methoxylphenyl)propionyl]perhydroisoindol-4-ol] yielded an ED50 of 0.004 mg/kg. Against the preceding compound, the ED50 is about 250-fold lower.

In the case of `COc1ccccc1[C@]1(O)C[C@H](CC#N)C[C@H]2CN(C(=O)[C@@H](C)c3ccccc3O)C[C@H]21` [Example 4, (3aS,4S,6S,7aR)-6-Cyanomethyl-2-[(S)-2-(2-hydroxyphenyl)propionyl]-4-(2-methoxyphenyl)perhydroisoindol-4-ol], it took a dose of 0.004 mg/kg to reach the 50% effect level (ED50).

Consider `COc1ccccc1CC(=O)N1C[C@@H]2C[C@@H](CC#N)C[C@@](O)(c3ccccc3OC)[C@@H]2C1` [Example 5, (3aS, 4S, 6S, 7aR)-6-Cyanomethyl-4-(2-methoxyphenyl)-2-[(2-methoxyphenyl)acetyl]perhydroisoindol-4-ol], for which the 50% effective dose (ED50) was 0.32 mg/kg. This ED50 is about 80-fold higher than that of the compound before.

The compound `COc1ccccc1[C@]1(O)C[C@H](CC#N)C[C@H]2CN(C(=O)Cc3ccc(Cl)c(Cl)c3)C[C@H]21` [Example 7, (3aS,4S,6S,7aR)-6-Cyanomethyl-2-[(3,4-dichlorophenyl)acetyl]-4-(2-methoxyphenyl)perhydroisoindol-4-ol] returned an ED50 of 0.36 mg/kg.

Regarding `COc1ccccc1C(N)C(=O)N1C[C@@H]2C[C@@H](CC#N)C[C@@](O)(c3ccccc3OC)[C@@H]2C1` (stereo partly drawn) [Example 10], the 50% effective dose (ED50) is 0.05 mg/kg.

Turning to `COc1ccccc1[C@H](C)C(=O)N1C[C@@H]2C[C@@H](CC#N)C[C@@](O)(c3ccccc3F)[C@@H]2C1` [Example 13, (3aS,4S,6S,7aR)-6-Cyanomethyl-4-(2-fluorophenyl)-2-[(S)-2-(2-methoxyphenyl)propionyl]perhydroisoindol-4-ol], the 50% effect level (ED50) was put at a dose of 0.02 mg/kg.

These data come from patent publication US5739351A, “Perhydroisoindole derivatives as substance P antagonists” (Rhone-Poulenc Rorer S.A., priority 1994, dated 1998).
